The nature of one data set: Animal toxicity in mice. It is filed as in vivo.
A further data set relates to FRT cells. The data set can be described thus: Cell toxicity by the dihydrorhodamine method. As to conditions: after 24 hours, dihydrorhodamine assay.
The next data set has as its target T1, Na+/H+ exchanger (NEE3) (Homo sapiens, UniProt P48764).
T1 sequence (P48764 26-834): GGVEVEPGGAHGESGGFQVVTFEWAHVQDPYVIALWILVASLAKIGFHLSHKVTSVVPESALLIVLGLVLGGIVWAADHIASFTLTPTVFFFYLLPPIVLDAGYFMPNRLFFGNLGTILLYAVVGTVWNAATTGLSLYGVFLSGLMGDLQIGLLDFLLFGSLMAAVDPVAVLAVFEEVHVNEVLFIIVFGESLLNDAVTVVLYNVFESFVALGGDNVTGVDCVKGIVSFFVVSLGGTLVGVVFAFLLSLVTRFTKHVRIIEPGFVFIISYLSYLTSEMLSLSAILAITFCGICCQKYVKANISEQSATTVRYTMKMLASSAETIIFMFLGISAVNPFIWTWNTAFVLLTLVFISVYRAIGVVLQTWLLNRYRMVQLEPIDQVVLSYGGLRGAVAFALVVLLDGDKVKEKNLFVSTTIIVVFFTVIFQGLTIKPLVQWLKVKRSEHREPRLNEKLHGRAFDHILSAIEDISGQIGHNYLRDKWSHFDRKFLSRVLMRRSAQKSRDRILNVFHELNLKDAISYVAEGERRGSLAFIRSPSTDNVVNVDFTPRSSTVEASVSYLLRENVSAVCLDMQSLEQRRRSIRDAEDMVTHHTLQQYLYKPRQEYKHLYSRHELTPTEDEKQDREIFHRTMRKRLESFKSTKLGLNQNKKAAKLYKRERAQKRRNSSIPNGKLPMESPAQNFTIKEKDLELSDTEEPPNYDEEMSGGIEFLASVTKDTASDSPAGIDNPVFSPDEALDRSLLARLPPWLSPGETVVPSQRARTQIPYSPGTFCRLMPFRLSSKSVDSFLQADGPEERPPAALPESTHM
The data set can be described thus: Additional specificity study: Na+/H+ exchanger. As to conditions: 5 μM.

The next data set has as its system phosphatase activity. The experiment in a line: Phosphatase assay. As to conditions: 5 μM.
The next data set concerns cellular cAMP production. The data set can be described thus: Intracellular cAMP assay in FRT cells.
A further data set deals with T2, water channel (AQP1) (Homo sapiens, UniProt P29972).
T2 sequence (P29972 1-269): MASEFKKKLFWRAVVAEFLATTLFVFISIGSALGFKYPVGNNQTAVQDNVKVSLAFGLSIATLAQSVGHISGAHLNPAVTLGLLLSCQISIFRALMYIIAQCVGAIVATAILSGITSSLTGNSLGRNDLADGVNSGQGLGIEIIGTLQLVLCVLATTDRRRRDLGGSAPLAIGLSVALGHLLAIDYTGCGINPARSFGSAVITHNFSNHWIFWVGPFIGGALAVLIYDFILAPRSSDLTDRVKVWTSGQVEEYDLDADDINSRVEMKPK
The experiment in a line: Additional specificity study: water channel. As to conditions: 5 μM.

A further data set has as its target MDR-1 (Homo sapiens, UniProt P08183).
In the next data set the target is T3, urea transporter (UT-B) (Homo sapiens, UniProt Q13336).
T3 sequence (Q13336 1-389): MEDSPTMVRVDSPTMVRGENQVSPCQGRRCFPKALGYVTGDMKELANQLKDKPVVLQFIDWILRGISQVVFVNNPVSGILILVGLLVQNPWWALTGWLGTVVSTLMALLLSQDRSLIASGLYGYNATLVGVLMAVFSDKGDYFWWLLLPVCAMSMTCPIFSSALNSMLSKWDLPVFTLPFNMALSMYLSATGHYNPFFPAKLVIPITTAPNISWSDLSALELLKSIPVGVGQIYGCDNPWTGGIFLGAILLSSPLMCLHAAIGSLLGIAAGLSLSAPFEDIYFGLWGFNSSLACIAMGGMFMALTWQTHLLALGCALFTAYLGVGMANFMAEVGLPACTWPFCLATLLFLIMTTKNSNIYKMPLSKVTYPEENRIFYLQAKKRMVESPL
The data set can be described thus: Additional specificity study: urea transporter. As to conditions: 5 μM.

The target of data set [1] is T4, Cl−/HCO3− exchanger (AEI) (Homo sapiens, UniProt P02730).
T4 sequence (P02730 1-911): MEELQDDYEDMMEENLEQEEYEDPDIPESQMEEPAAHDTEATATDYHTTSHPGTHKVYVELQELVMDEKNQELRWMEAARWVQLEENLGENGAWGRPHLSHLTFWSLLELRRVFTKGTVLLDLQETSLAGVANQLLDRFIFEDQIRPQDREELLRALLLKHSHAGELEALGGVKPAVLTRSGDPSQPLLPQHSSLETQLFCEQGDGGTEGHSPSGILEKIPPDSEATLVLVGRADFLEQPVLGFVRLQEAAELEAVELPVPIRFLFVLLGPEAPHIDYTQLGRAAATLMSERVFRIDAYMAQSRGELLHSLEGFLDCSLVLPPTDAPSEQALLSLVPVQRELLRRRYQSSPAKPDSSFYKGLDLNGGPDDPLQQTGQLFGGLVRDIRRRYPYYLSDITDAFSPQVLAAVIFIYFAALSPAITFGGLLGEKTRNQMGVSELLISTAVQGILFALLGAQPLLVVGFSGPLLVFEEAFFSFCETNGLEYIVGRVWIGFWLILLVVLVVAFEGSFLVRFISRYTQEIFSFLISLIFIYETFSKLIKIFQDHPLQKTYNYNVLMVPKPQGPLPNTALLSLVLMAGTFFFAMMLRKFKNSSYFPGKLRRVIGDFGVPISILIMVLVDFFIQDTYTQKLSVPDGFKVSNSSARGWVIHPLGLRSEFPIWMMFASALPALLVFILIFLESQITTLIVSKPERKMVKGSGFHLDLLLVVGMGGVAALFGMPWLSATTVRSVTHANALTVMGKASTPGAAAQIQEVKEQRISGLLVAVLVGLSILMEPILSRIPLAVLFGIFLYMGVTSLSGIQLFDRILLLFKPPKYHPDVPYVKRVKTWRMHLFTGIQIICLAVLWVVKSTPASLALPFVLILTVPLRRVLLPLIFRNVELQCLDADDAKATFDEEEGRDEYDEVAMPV
The data set can be described thus: Additional specificity study: Cl−/HCO3− exchanger. As to conditions: 5 μM.

The subject of data set [2] is Calcium-sensitive Cl− channels. The experiment in a line: UTP-stimulated Ca2+-dependent Cl− secretion, short-circuit current in human bronchial epithelial cells. It is filed as cell-based.
For data set [3], the system named is cholera toxin-induced intestinal fluid secretion. More on the design: species or system mice. As to conditions: mouse, in vivo, ip.
Data set [4] has as its system Volume-sensitive Cl− channels. The data set can be described thus: Volume-activated Cl− current, whole-cell patch clamp on FRT cells. As to conditions: 5 μM; 250 mosM/kg hypotonic solution. Format: cell-based, rat. From the text: FIG. 4B is a graphical representation of volume-activated Cl^− current (hypotonic 250 mosM/kg H2O) measured in whole-cell patch clamp experiments on FRT cells.

The next data set deals with T5, CFTR Cl− channel (Rattus norvegicus, UniProt P34158).
T5 construct: from tissue; host or cells: rat colon mucosa strips
The data set can be described thus: Short-circuit current in isolated rat colonic mucosa. As to conditions: amiloride, forskolin 20 μM.

The target in a further data set is T6, human wildtype CFTR (Homo sapiens, UniProt P13569).
T6 construct: expressed in transfected cells; host or cells: Fischer rat thyroid (FRT) cells, stably transfected, co-expressing YFP-H148Q
The experiment in a line: YFP fluorescence assay of CFTR-mediated I− transport in FRT cells. It is filed as cell-based. As to conditions: relative to CFTRinh-172 = 1.0.

The mark [5] stands for this setting: mice, intraperitoneal 1000 μg/kg daily for 7 days.

Entries after “also recorded” stand apart in the source; their conditions may differ. Where two headings read alike, the source gives them in different places. Where only a bound is given, the exact number is not on record here.

We go through twelve compounds from patent publication US20040063695A1, “Cystic fibrosis transmembrane conductance regulator protein inhibitors and uses thereof” (priority 2002, published 2004).

T5 sequence (P34158 whole entry): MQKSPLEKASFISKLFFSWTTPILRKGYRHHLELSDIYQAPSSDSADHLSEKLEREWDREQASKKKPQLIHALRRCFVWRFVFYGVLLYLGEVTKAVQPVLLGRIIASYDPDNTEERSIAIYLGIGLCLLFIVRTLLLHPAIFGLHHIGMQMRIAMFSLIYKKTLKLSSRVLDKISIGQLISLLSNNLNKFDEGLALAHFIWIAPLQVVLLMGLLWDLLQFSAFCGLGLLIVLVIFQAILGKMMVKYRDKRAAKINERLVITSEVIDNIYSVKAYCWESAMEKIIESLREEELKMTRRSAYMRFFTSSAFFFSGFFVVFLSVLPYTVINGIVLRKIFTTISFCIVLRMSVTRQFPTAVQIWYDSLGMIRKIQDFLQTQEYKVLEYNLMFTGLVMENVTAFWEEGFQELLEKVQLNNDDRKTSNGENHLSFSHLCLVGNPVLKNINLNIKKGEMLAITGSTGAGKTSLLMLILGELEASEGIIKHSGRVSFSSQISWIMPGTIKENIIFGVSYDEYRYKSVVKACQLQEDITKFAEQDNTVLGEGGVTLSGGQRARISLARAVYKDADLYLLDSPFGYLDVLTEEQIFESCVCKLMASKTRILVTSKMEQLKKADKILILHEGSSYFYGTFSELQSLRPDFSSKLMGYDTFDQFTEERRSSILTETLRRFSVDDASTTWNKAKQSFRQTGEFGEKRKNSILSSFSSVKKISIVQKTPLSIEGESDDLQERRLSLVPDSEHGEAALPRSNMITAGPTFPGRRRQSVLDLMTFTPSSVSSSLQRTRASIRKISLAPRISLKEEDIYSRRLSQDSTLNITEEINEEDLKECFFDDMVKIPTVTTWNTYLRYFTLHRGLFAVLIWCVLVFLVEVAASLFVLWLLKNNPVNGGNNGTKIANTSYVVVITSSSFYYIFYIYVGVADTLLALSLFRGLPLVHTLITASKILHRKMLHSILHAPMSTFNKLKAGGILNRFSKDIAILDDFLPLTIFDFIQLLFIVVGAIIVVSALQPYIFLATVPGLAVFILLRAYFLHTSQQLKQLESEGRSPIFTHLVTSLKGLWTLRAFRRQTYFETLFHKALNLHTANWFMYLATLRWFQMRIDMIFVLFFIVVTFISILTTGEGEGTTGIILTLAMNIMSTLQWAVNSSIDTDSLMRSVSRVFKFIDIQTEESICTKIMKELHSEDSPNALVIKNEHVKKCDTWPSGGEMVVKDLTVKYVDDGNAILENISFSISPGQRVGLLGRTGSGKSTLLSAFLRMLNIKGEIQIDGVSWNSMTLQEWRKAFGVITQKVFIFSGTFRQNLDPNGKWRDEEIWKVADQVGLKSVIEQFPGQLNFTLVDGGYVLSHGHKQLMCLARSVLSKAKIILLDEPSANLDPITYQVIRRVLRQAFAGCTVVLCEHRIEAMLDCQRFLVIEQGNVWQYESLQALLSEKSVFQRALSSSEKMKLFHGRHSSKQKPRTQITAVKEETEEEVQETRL
MDR-1, sequence (P08183 whole entry): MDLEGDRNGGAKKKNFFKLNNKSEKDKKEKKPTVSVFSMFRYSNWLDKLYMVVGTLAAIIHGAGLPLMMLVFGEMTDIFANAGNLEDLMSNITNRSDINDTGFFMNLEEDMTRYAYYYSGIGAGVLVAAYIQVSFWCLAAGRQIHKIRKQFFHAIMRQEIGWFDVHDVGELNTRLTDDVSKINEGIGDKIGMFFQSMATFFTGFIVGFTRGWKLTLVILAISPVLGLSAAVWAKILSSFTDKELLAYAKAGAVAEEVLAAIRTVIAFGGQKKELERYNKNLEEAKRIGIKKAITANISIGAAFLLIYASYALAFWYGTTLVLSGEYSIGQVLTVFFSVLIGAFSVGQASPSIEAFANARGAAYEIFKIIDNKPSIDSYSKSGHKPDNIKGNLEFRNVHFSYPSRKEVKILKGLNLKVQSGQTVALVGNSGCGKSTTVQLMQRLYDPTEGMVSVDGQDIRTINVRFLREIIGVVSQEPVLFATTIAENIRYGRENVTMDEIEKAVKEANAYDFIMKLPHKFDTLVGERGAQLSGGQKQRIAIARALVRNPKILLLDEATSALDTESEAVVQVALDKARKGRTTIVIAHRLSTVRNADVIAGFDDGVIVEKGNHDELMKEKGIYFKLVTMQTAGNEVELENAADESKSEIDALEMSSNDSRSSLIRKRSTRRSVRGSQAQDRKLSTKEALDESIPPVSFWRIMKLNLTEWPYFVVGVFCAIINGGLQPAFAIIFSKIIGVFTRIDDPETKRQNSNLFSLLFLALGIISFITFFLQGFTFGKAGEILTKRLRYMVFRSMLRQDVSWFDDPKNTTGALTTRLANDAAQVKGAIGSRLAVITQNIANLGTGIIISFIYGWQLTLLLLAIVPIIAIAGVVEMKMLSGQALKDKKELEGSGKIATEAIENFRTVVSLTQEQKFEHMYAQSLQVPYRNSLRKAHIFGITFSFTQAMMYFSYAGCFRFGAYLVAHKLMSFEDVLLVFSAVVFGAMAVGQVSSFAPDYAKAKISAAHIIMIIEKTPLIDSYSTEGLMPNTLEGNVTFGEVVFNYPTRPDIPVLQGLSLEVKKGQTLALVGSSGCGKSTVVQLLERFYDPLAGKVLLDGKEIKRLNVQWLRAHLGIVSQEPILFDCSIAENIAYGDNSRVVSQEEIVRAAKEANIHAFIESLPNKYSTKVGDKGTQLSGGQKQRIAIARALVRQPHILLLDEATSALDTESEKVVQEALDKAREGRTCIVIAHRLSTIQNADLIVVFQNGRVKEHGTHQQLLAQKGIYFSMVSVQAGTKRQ

In the case of “3-[(3-trifluoromethyl)phenyl]-5-[(4-carboxyphenyl)methylene]-2-thioxo-4-thiazolidinone [CFTRinh-172]”, in the data set “Animal toxicity in mice” (setting [5]), the “food and water intake” value is listed as “not diminished”; the overt toxicity entry is recorded as “did not cause overt toxicity”; the “serum electrolyte concentrations, glucose, liver function indices, serum creatinine, amylase and hematocrit” value was “not changed”. Moreover, the overt toxicity result in “Animal toxicity in mice” (single systemic dose 10 mg/kg) is listed as “did not cause overt toxicity”. Moreover, the “concentrations non-toxic to FRT cells” value with FRT cells was “up to 100 μM”. The “block of Na+/H+ exchanger (NEE3)” value at Na+/H+ exchanger (NEE3) was “did not block”. Further, in the data set on phosphatase activity, the “effect on phosphatase activity” value is “did not affect”. Moreover, in the data set on cellular cAMP production (5 μM), the “effect on cellular cAMP production” value was “did not affect”. Besides, in the data set with cellular cAMP production (30 min after 20 μM forskolin, + inhibitor (n=3)), the cAMP content is recorded as 1140±50 fmol/well. The “block of water channel (AQP1)” value at water channel (AQP1) was “did not block”. The vincristine accumulation result at MDR-1 (5 μM) is listed as “did not affect vincristine accumulation”. Further, the “block of urea transporter (UT-B)” value on urea transporter (UT-B) is “did not block”. In [1], the “block of Cl−/HCO3− exchanger (AEI)” value is on record as “did not block”. Moreover, the “effect on Ca2+ activated Cl− secretion” value in [2] (5 μM, UTP 100 μM apical) is “did not inhibit”. The “maximal UTP-dependent short-circuit current” value in [2] (in the presence of 5 μM inhibitor (SE, n=4)) came out at 10.0±0.2 μA/cm^2. For the same compound, the “fluid accumulation in cholera toxin-treated ileal loops” value in [3] is reported as “effectively prevented fluid accumulation; also recorded: significantly reduced fluid secretion to that in saline control loops”. Further, the “effect on volume-activated Cl− currents” value in [4] is “did not block”. Moreover, on CFTR Cl− channel (5 μM in mucosal solution alone), the “reduction of short-circuit current” value is recorded as > 80%. Also, at CFTR Cl− channel, the “efficacy of short-circuit current inhibition, mucosal vs. serosal addition” value is given as “greater efficacy”.

For the compound `O=C(O)c1ccccc1C=C1SC(=S)N(c2ccccc2C(F)(F)F)C1=O` [2, 3, 3-[(a-trifluoromethyl)phenyl]-5-[(b-carboxyphenyl)methylene]-2-thioxo-4-thiazolidinone], the “relative potency (CFTR inhibitory activity)” value on human wildtype CFTR was 0.70.

As to `O=C(O)c1ccccc1C=C1SC(=S)N(c2ccccc2C(F)(F)F)C1=O` [2, 4, 3-[(a-trifluoromethyl)phenyl]-5-[(b-carboxyphenyl)methylene]-2-thioxo-4-thiazolidinone], the “relative potency (CFTR inhibitory activity)” value at human wildtype CFTR is 0.66.

Consider `O=C(O)c1ccccc1C=C1SC(=S)N(c2ccccc2C(F)(F)F)C1=O` [3, 2, 3-[(a-trifluoromethyl)phenyl]-5-[(b-carboxyphenyl)methylene]-2-thioxo-4-thiazolidinone], for which the “relative potency (CFTR inhibitory activity)” value on human wildtype CFTR is 0.74.

`O=C(O)c1ccccc1C=C1SC(=S)N(c2ccccc2C(F)(F)F)C1=O` [3, 3, 3-[(a-trifluoromethyl)phenyl]-5-[(b-carboxyphenyl)methylene]-2-thioxo-4-thiazolidinone]: the “relative potency (CFTR inhibitory activity)” value on human wildtype CFTR came out at 0.90.

With `O=C(O)c1ccccc1C=C1SC(=S)N(c2ccccc2C(F)(F)F)C1=O` [4, 2, 3-[(a-trifluoromethyl)phenyl]-5-[(b-carboxyphenyl)methylene]-2-thioxo-4-thiazolidinone], on human wildtype CFTR, the “relative potency (CFTR inhibitory activity)” value was found to be 0.67.

For `O=C(O)c1ccccc1C=C1SC(=S)N(c2ccccc2C(F)(F)F)C1=O` [4, 3, 3-[(a-trifluoromethyl)phenyl]-5-[(b-carboxyphenyl)methylene]-2-thioxo-4-thiazolidinone], the “relative potency (CFTR inhibitory activity)” value on human wildtype CFTR is listed as 0.64.

Regarding `O=C(O)c1ccccc1C=C1SC(=S)N(c2ccccc2C(F)(F)F)C1=O` [4, 4, 3-[(a-trifluoromethyl)phenyl]-5-[(b-carboxyphenyl)methylene]-2-thioxo-4-thiazolidinone], on human wildtype CFTR, the “relative potency (CFTR inhibitory activity)” value was determined as 0.56.

As to `O=C(O)Oc1ccc(/C=C2\SC(=O)N(c3cccc(C(F)(F)F)c3)C2=S)cc1` [CFTRinh-029, 3-[(3-trifluoromethyl)phenyl]-5-[(4-oxycarboxyphenyl)methylene]-2-thioxo-4-thiazolidinone], on human wildtype CFTR, the “relative potency (CFTR inhibitory activity)” value stood at 0.3.

On to `O=C1S/C(=C\c2ccc(O)c(O)c2)C(=S)N1c1cccc(C(F)(F)F)c1` [CFTRinh-185, 3-[(3-trifluoromethyl)phenyl]-5-[(3,4-dihydroxyphenyl)methylene]-2-thioxo-4-thiazolidinone], for which the “relative potency (CFTR inhibitory activity)” value at human wildtype CFTR came out at 0.2.

For the compound `O=C(O)c1ccccc1C=C1SC(=S)N(c2ccccc2C(F)(F)F)C1=O` [a=2, b=2, 3-[(a-trifluoromethyl)phenyl]-5-[(b-carboxyphenyl)methylene]-2-thioxo-4-thiazolidinone], the “relative potency (CFTR inhibitory activity)” value at human wildtype CFTR is listed as 0.69.

Turning to `COc1ccc(CCN(C)CCCC(C#N)(c2ccc(OC)c(OC)c2)C(C)C)cc1OC` (stereo not drawn) [verapamil, reference compound], on MDR-1 (100 μM), the vincristine accumulation entry is “strongly increased”.
